Data taken from patent publication US6100279A, “Imidazoylalkyl substituted with a five, six or seven membered heterocyclic ring containing one nitrogen atom” (Schering Corporation, priority 1998, dated 2000).

Legend:
H3 receptor = molecular target: T1, H3 receptor (Cavia porcellus, UniProt Q9JI35); assay: H3 Receptor Binding Assay (displacement of [3H]R-α-methylhistamine or [3H]-N-methylhistamine); details: guinea pig brain membranes; 3 nM [3H]R-α-methylhistamine or [3H]-N-methylhistamine; 30°, 30 min; duplicate, standard error less than 10%
T1 construct: The source of the H3 receptors in this experiment was guinea pig brain; from tissue; host or cells: guinea pig brain membranes
T1 sequence (Q9JI35 whole entry): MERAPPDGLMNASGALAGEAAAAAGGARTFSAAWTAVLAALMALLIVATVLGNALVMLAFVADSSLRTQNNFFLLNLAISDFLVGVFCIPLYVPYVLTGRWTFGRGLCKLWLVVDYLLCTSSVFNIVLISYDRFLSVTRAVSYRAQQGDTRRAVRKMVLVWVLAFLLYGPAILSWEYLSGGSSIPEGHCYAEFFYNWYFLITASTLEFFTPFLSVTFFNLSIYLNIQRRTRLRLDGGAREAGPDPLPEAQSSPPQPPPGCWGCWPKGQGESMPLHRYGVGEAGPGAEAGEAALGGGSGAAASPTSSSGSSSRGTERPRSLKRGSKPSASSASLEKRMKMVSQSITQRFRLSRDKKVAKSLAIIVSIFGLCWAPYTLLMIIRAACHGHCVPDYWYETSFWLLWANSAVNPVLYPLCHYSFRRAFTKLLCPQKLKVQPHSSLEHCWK
Method: The compounds of this invention are either agonists or antagonists of the histamine H3 receptor. […] The animals used weighed 400-600 g. The tissue was homogenized using a Polytron in a solution of 50 mM Tris, pH 7.5. The final concentration of tissue in the homogenization buffer was 10% w/v. The homogenates were centrifuged at 1000×g for 10 min. in order to remove clumps of tissue and debris. […] The membranes were frozen and stored at -70° C. until needed. All compounds to be tested were dissolved in DMSO and then diluted into the binding buffer (50 mM Tris, pH 7.5) such that the final concentration was 2 μg/ml with 0.1% DMSO. Membranes were then added (400 μg of protein) to the reaction tubes. […] Bound ligand was separated from unbound ligand by filtration, and the amount of radioactive ligand bound to the membranes was quantitated by liquid scintillation spectrometry.

[1] = tested on: H3 receptors in rat brain; details: cited from Arrang et al.; cited from earlier work

SMILES | Ki (H3 receptor) [nM] | maximal inhibition of release [1]
O=C(Nc1cccc(Cl)c1)N1CCC(CCc2cnc[nH]2)CC1 [Compound 118] | 210 | 
O=C(CCN1CCC(CCc2cnc[nH]2)CC1)Nc1ccc(Cl)cc1 [Compound 116] | 11 | 
O=C(Nc1cc(Cl)cc(Cl)c1)N1CCC(Cc2cnc[nH]2)CC1 [Compound 85] | 220 | 
O=C(Cc1ccc(Cl)c(Cl)c1)N1CCC(CCc2cnc[nH]2)CC1 [Compound 115] | 57 | 
O=C(CCc1ccc(Cl)cc1)N1CCC(Cc2cnc[nH]2)CC1 [Compound 93] | 40 | 
O=C(CCN1CCC(CCc2cnc[nH]2)CC1)Nc1ccc(C(F)(F)F)cc1 [Compound 117] | 50 | 
FC(F)(F)c1ccc(NCCCN2CCC(CCc3cnc[nH]3)CC2)cc1 [Compound 114] | 60 | 
O=C(CC(=O)N1CCC(Cc2cnc[nH]2)CC1)Nc1cccc(Cl)c1 [Compound 95] | 50 | 
O=C(Nc1ccc(Cl)cc1)N1CCC(Cc2cnc[nH]2)CC1 [Compound 92] | 160 | 
O=C(CN1CCC(Cc2cnc[nH]2)CC1)Nc1ccc(Cl)cc1 [Compound 90] | 90 | 
O=S(=O)(c1ccc(Cl)cc1)N1CCC(Cc2cnc[nH]2)CC1 [Compound 78] | 150 | 
O=C(CCOc1ccc(Cl)cc1)N1CCC(Cc2cnc[nH]2)CC1 [Compound 87] | 9 | 
O=C(Nc1cccc(Cl)c1)N1CCC(Cc2cnc[nH]2)CC1 [Compound 91] | 20 | 
NCCc1c[nH]cn1 [histamine] |  | approximately 60%
O=S(=O)(c1ccc(OC(F)(F)F)cc1)N1CCC(CCc2cnc[nH]2)C1 (centres unmarked) [Compound 97] | 58 | 
Clc1ccc(OCCCN2CCC(Cc3cnc[nH]3)CC2)cc1 [Compound 88] | 9 | 

Further lines, with some results ahead:

Ki (H3 receptor) [nM] | SMILES | maximal inhibition of release [1]
0.9 | O=C(CCN1CCC(CCc2cnc[nH]2)C1)Nc1ccc(Cl)cc1 (centres unmarked) [Compound 45] | 
0.2 | O=C(CCN1CCC(Cc2cnc[nH]2)CC1)Nc1cccc(Cl)c1 [Compound 81] | 
4 | c1ccc(OCCCN2CCC(Cc3cnc[nH]3)CC2)cc1 [Compound 79] | 
0.7 | O=C(CCN1CCC(Cc2cnc[nH]2)CC1)Nc1cc(Cl)cc(Cl)c1 [Compound 83] | 
5 | O=C(CCOc1ccccc1)N1CCC(Cc2cnc[nH]2)CC1 [Compound 86] | 
0.1 | O=C(CCN1CCC(Cc2c[nH]cn2)CC1)Nc1cccc(F)c1 [Compound 94] | 
0.7 | O=C(CCN1CCC(Cc2c[nH]cn2)CC1)NCCc1ccc(Cl)cc1 [Compound 82] | 
8 | O=C(CCCc1ccccc1)N1CCC(Cc2cnc[nH]2)CC1 [Compound 96] | 
0.4 | O=C(CCN1CCC(Cc2cnc[nH]2)CC1)Nc1ccc(Cl)cc1 [Compound 84] | 
5 | O=C(CCN1CCC(Cc2cnc[nH]2)CC1)Nc1ccc(I)cc1 [Compound 89] | 
